According to patent US20240325371A1, “USE OF EZH2 INHIBITOR IN PREPARATION OF DRUG FOR TREATING T-CELL LYMPHOMA” (JIANGSU HENGRUI MEDICINE CO., LTD., priority 2021, published 2024):

Test system: relapsed or refractory PTCL
Assay: Efficacy study of compound shown in Formula (I) in peripheral T-cell lymphoma patients
Format: in vivo, human
Method: ORR: Defined as the proportion of subjects with best efficacy of CR or PR from the start of the first dose to the occurrence of PD or the start of subsequent new anti-tumor treatment, whichever occurs first. • 1.1 Drugs: Compound (WO2017084494A) shown in Formula (1), strength: 50 mg/tablet, 200 mg/tablet. • 1.2 Methods of administration: 350 mg, twice a day, 28 days as a cycle. • 1.3 Inclusion criteria: Relapsed or refractory T lymphocytic lymphoma. A total of 24 patients with relapsed or refractory PTCL were enrolled in the 350 mg group, of whom 16 received chidamide, and all patients were analyzed for efficacy data based on indistinguishable prior treatment and prior chidamide treatment.

`CCc1c(N(CC)C2CCOCC2)cc2oc(CN3CCCCC3)cc2c1C(=O)NCc1c(C)cc(C)[nH]c1=O` [Formula (I)] showed an ORR (350 mg group having used chidamide, ES, AITL (n = 8)) of 62.5%, an ORR (350 mg group having used chidamide, ES, ALL (n = 14)) of 64.3% and an ORR (350 mg group having used chidamide, ES, PTCL-NOS (n = 6)) of 66.7%. It also gave an ORR (350 mg group having used chidamide, FAS, AITL (n = 10)) of 50.0%, an ORR (350 mg group having used chidamide, FAS, ALL (n = 16)) of 56.3% and an ORR (350 mg group having used chidamide, FAS, PTCL-NOS (n = 6)) of 66.7%. The ORR (350 mg twice a day, ES, AITL (n = 11)) was 72.7%, the ORR (350 mg twice a day, ES, ALL (n = 18)) was 66.7% and the ORR (350 mg twice a day, ES, PTCL-NOS (n = 7)) was 57.1%. The ORR (350 mg twice a day, FAS, AITL (n = 15)) was 53.3%, the ORR (350 mg twice a day, FAS, ALL (n = 24)) was 50% and the ORR (350 mg twice a day, FAS, PTCL-NOS (n = 9)) was 44.4%.
